Experimental data as given in patent US20230000813A1, “COMPOUND FOR THE TREATMENT OF BOVINE OR SWINE RESPIRATORY DISEASE” (Intervet Inc., priority 2016, published 2023).
Converted amounts (≈) assume the structure as drawn.

Key:
Test in all cases: MIC, broth-microdilution (CLSI VET01-A4)
Type in all cases: cell-based
[1] = tested on: Pasteurella multocida PM 6391 (ATCC 43137, reference strain); conditions: Pasteurella multocida PM 6391; for MIC: read-out: MIC PM 6391
Method in brief: (§1)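 Broth microdilution per CLSI VET01-A4 using doubling dilution series of test compound; results interpreted per CLSI VET01-S3. MIC recorded as lowest concentration giving no turbidity visible to the unaided eye.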

[2] = tested on: Pasteurella multocida PM 12080 (IV102277-0093, BRD field isolate); conditions: Pasteurella multocida PM 12080
Method in brief: as §1

[3] = tested on: Mannheimia haemolytica MH 12587 (1071, BRD field isolate, macrolide-resistance: erm+, E+); conditions: Mannheimia haemolytica MH 12587, macrolide-resistant
Method in brief: as §1

[4] = tested on: Pasteurella multocida PM 6267 (P 2225 (L386), reference strain, mouse infection strain); conditions: Pasteurella multocida PM 6267
Method in brief: as §1

[5] = tested on: Mannheimia haemolytica MH 6374 (ATCC 33396, reference strain); conditions: Mannheimia haemolytica MH 6374; for MIC: read-out: MIC MH 6374
Method in brief: as §1

[6] = tested on: Mannheimia haemolytica MH 6357 (M7/2, reference strain, cattle infection strain); conditions: Mannheimia haemolytica MH 6357; read-out: MIC MH 6357
Method in brief: as §1

[7] = tested on: Pasteurella multocida PM 10775 (080130003051, BRD field isolate); conditions: Pasteurella multocida PM 10775
Method in brief: as §1

[8] = tested on: Mannheimia haemolytica MH 10720 (154, BRD field isolate); conditions: Mannheimia haemolytica MH 10720; for MIC: read-out: MIC MH 10720
Method in brief: as §1

[9] = tested on: Mannheimia haemolytica MH 13093 (XB0472-6014.1, BRD field isolate)
Method in brief: (§2)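 MIC read by eye as lowest compound concentration without visible growth (no turbidity), interpreted per CLSI VET01-S3. Doubling-dilution broth-microdilution trays, run according to CLSI VET01-A4.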

[10] = tested on: Mannheimia haemolytica MH 13065 (XB0446-6003.9, BRD field isolate)
Method in brief: as §2

Structure (SMILES) | MIC PM 6391 [1] | MIC PM 12080 [2] | MIC MH 12587 [3] [µM] | MIC PM 6267 [4] | MIC [5] [µM] | MIC [6] [µM] | MIC PM 10775 [7] | MIC MH 10720 [8] | MIC [9] [µM] | MIC [10] [µM] | MIC [1] [µM] | MIC ([2]; read-out: MIC PM 12080) [µM] | MIC [8] [µM] | MIC MH 6374 [5] | MIC MH 13065 [10]
CC(C)(O)C(NC(=O)c1ccc(C#Cc2ccc(CNCc3ccco3)cc2)cc1)C(=O)NO (stereo not shown) [Compound 577] | <=0.1 μM | <=0.1 μM | 0.8 (≈ 0.369 µg/mL) | <=0.1 μM | 0.2 (≈ 0.0923 µg/mL) | 0.4 (≈ 0.185 µg/mL) | <=0.1 μM | <=0.1 μM | 0.4 (≈ 0.185 µg/mL) | 0.2 (≈ 0.0923 µg/mL) | – | – | – | – | –
C[C@@H](O)[C@H](NC(=O)c1ccc(C#Cc2ccc(CN3CCc4ccccc4C3)o2)cc1)C(=O)NO [Compound 203] | – | – | 1.6 (≈ 0.758 µg/mL) | <=0.1 μM | 0.8 (≈ 0.379 µg/mL) | 0.8 (≈ 0.379 µg/mL) | <=0.1 μM | <=0.1 μM | 0.8 (≈ 0.379 µg/mL) | 0.8 (≈ 0.379 µg/mL) | 0.4 (≈ 0.189 µg/mL) | 0.2 (≈ 0.0947 µg/mL) | – | – | –
CC(C)(N)C(NC(=O)c1ccc(C#Cc2ccc(CNCc3cccnc3)cc2)cc1)C(=O)NO (racemic) [C. 364] | – | <=0.1 μM | 1.6 (≈ 0.754 µg/mL) | <=0.1 μM | 1.6 (≈ 0.754 µg/mL) | 1.6 (≈ 0.754 µg/mL) | <=0.1 μM | – | 1.6 (≈ 0.754 µg/mL) | 0.8 (≈ 0.377 µg/mL) | 0.2 (≈ 0.0943 µg/mL) | – | 0.8 (≈ 0.377 µg/mL) | – | –
CC(C)(O)C(NC(=O)c1ccc(C#Cc2ccc(CNCc3cccs3)cc2)cc1)C(=O)NO (stereo not shown) [Compound 578] | <=0.1 μM | <=0.1 μM | 0.4 (≈ 0.191 µg/mL) | <=0.1 μM | – | 0.4 (≈ 0.191 µg/mL) | <=0.1 μM | <=0.1 μM | 0.2 (≈ 0.0955 µg/mL) | – | – | – | – | <=0.1 μM | <=0.1 μM
CC(C)(O)C(NC(=O)c1ccc(C#Cc2ccc(CNCc3ccccn3)cc2)cc1)C(=O)NO (stereo not shown) [Compound 576] | <=0.1 μM | <=0.1 μM | 1.6 (≈ 0.756 µg/mL) | <=0.1 μM | 0.4 (≈ 0.189 µg/mL) | 0.8 (≈ 0.378 µg/mL) | <=0.1 μM | <=0.1 μM | 0.8 (≈ 0.378 µg/mL) | 0.8 (≈ 0.378 µg/mL) | – | – | – | – | –
CC(C)(O)[C@H](NC(=O)c1ccc(C#Cc2ccc(CNCc3ccncc3)cc2)cc1)C(=O)NO [Compound 651] | <=0.1 μM | <=0.1 μM | 0.4 (≈ 0.189 µg/mL) | <=0.1 μM | 0.2 (≈ 0.0945 µg/mL) | 0.4 (≈ 0.189 µg/mL) | <=0.1 μM | <=0.1 μM | 0.4 (≈ 0.189 µg/mL) | 0.2 (≈ 0.0945 µg/mL) | – | – | – | – | –
C[C@@H](O)[C@H](NC(=O)c1ccc(C#Cc2ccc(CNC3CC3)cc2)cc1)C(=O)NO [C. 103] | – | <=0.1 μM | 0.8 (≈ 0.326 µg/mL) | <=0.1 μM | 0.195 (≈ 0.0795 µg/mL) | 0.391 (≈ 0.159 µg/mL) | <=0.1 μM | – | 1.6 (≈ 0.652 µg/mL) | 0.4 (≈ 0.163 µg/mL) | 0.195 (≈ 0.0795 µg/mL) | – | 0.2 (≈ 0.0815 µg/mL) | – | –
CC(C)(C(NC(=O)c1ccc(C#Cc2ccc(CNCc3ccccc3)cc2)cc1)C(=O)NO)[N+](=O)[O-] (racemic) [Compound 652] | – | <=0.1 μM | 0.8 (≈ 0.4 µg/mL) | <=0.1 μM | 0.8 (≈ 0.4 µg/mL) | 0.8 (≈ 0.4 µg/mL) | <=0.1 μM | <=0.1 μM | 0.8 (≈ 0.4 µg/mL) | 0.4 (≈ 0.2 µg/mL) | 0.4 (≈ 0.2 µg/mL) | – | – | – | –
CC(C)([C@H](NC(=O)c1ccc(C#Cc2ccc(CNCC#N)cc2)cc1)C(=O)NO)S(C)(=O)=O [Compound 612] | <=0.1 μM | <=0.1 μM | 1.6 (≈ 0.772 µg/mL) | <=0.1 μM | 0.4 (≈ 0.193 µg/mL) | 0.8 (≈ 0.386 µg/mL) | <=0.1 μM | <=0.1 μM | 0.8 (≈ 0.386 µg/mL) | 0.8 (≈ 0.386 µg/mL) | – | – | – | – | –
CC(C)(C(NC(=O)c1ccc(C#Cc2ccc(CNCc3ccncc3)cc2)cc1)C(=O)NO)[N+](=O)[O-] (racemic) [Compound 654] | <=0.1 μM | <=0.1 μM | 0.8 (≈ 0.401 µg/mL) | <=0.1 μM | 0.4 (≈ 0.201 µg/mL) | 0.4 (≈ 0.201 µg/mL) | <=0.1 μM | <=0.1 μM | 0.4 (≈ 0.201 µg/mL) | 0.4 (≈ 0.201 µg/mL) | – | – | – | – | –
